In article PMC8162404, “Proteomimetic surface fragments distinguish targets by function” (Chemical Science, 2020):
pKd: −log10 of the molar value.

Biological target: T1, Gal-1 (Homo sapiens, UniProt P09382)
T1 construct: made in house; host or cells: E. coli BL21(DE3)
Test: Pull-down assay with immobilized protein and LSM libraries
Type: binding
Conditions: H12 library; 1:1 binding assumed; read-out: Surface mapping KD (apparent)
Protocol: Pull-down assays with immobilized test proteins and foldameric LSM libraries were carried out. Proteins were equilibrated with LSM probes, and equilibrium bound fractions (FB) were determined from the unbound fractions measured by HPLC-MS methods. Hits were corrected with background binding of the resin. The protocol allowed all binding events to equilibrate irrespective of affinity, specificity, and binding kinetics. This was essential to judge overall druggability and promiscuity. Importantly, the concentration of protein and the total concentration of foldameric LSMs were equimolar, which minimized competition between the probes. This experimental setup approximated independent binding of individual library members. Results were visualized as heat maps of dissociation constants (Fig. 3).
Pull-down assay and data analysis
Pull-down assay. LSM sublibraries were screened separately as previously described.(2) Experiments were performed in the following buffers: (i) 20 mM pH 7.4 HEPES, 150 mM NaCl, 5 mM CaCl2 for CaM; (ii) 50 mM pH 7.4 HEPES, 150 mM NaCl, 1 mM TCEP, 1 mM CaCl2 for S100 proteins; (iii) 20 mM pH 7.4 HEPES, 150 mM NaCl, 1 mM TCEP for Gal-1 and (iv) 20 mM pH 7.4 HEPES, 150 mM NaCl for RecQ-WH. Assays were performed in paper filter spin cups (Thermo Scientific) with sample volumes of 100 µl. Hexahistidine-tagged proteins were immobilized on previously washed Co-NTA resin (TALON, Takara Bio USA, Inc., Mountain View, CA) in 64 µM final concentration. LSM sublibrary was added, in which each of the 64 library members were used at a concentration of 1 µM. Samples were incubated at room temperature for 30 min with shaking at 100 rpm. Then, samples were centrifuged at 1000 rpm for 2 min and washed with 100 µl pull-down buffer to remove unbound compounds.
The control experiments were performed using the same compounds and the resin but without the immobilized protein. In case of competitive assays, competitor peptides were added to LSM sublibrary samples in 200 µM final concentration. In the case of Gal-1, lactose (competitor) was used in a concentration of 10 mM. Experiments were performed at least twice. Mean […]
LC-MS methods and parameters. HPLC/ESI-MS analysis was used to characterize the samples from the pull-down assay. LC-MS analysis was performed with a Thermo Scientific Dionex UltiMate 3000 HPLC system interfaced to an LTQ ion trap mass spectrometer (Thermo Electron Corp., San Jose, CA, USA). Samples were injected onto an Aeris Widepore XB-C18 (250 x 4.6 mm) analytical HPLC column using gradient elution 5-80 % solution B during 25 minutes. For pull-down samples, eluent composition was 0.1% acetic acid in distilled water (Solution A) and 0.1% acetic acid in acetonitrile (solution B). Mass spectra were acquired in full scan mode from 200 to 2000 m/z range. For overlapping peaks, selective reaction monitoring (SRM) was […]
MS data analysis. Thermo Xcalibur 2.2 software was used for peak identification and integration. The majority of the foldameric fragments could be resolved independently via HPLC-MS/MS measurements based on molecular weight, MS fragmentation pattern and retention time. Peaks of some foldamers with β3-hIle or β3-hLeu in position R2 could not be resolved, these were integrated and averaged. In the processing method, each sample component was associated to a chromatographic peak based on previously identified mass (m/z) and retention time (ref (2) and Table S7-10). Using ICIS peak detection algorithm, the general detection and integration criteria were: smoothing points: 5, baseline window: 80, area noise factor: 5, peak noise factor: 10. Using these processing setups, all raw data files were reprocessed together and analyzed. Errors in peak identification during the automatic processing were corrected manually.
Calculation of the discussed parameters
1. Bound fractions (FB.) were calculated from the HPLC-MS intensity loss of the LSM probes compared to the control where no protein was immobilized to the resin: […]

T1 sequence (P09382 whole entry): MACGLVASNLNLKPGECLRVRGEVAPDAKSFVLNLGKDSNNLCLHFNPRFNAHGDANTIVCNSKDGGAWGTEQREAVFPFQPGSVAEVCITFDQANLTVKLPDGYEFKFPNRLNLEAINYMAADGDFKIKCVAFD

Point of comparison: `NC(=O)CC[C@@H](CC(=O)N[C@H]1CCC[C@@H]1C(=O)N[C@H]1CCC[C@@H]1C(N)=O)NC(=O)[C@H]1CCC[C@@H]1NC(=O)[C@H]1CCC[C@@H]1NC(=O)C[C@H](CC(=O)O)NC(=O)[C@H]1CCC[C@@H]1NC(=O)[C@H]1CCC[C@@H]1N` [H12 DQ], pKd 3.61. Against it:
- CC(C)[C@@H](CC(=O)N[C@H]1CCC[C@@H]1C(=O)N[C@H]1CCC[C@@H]1C(=O)N[C@@H](CC(N)=O)CC(=O)N[C@H]1CCC[C@@H]1C(=O)N[C@H]1CCC[C@@H]1C(N)=O)NC(=O)[C@H]1CCC[C@@H]1NC(=O)[C@H]1CCC[C@@H]1N [H12 VN] — 0.31 log units lower, 3.30
- C[C@@H](CC(=O)N[C@H]1CCC[C@@H]1C(=O)N[C@H]1CCC[C@@H]1C(N)=O)NC(=O)[C@H]1CCC[C@@H]1NC(=O)[C@H]1CCC[C@@H]1NC(=O)C[C@H](CCC(=O)O)NC(=O)[C@H]1CCC[C@@H]1NC(=O)[C@H]1CCC[C@@H]1N [H12 EA] — within 0.2 log units, 3.47
- C[C@@H](CC(=O)N[C@H]1CCC[C@@H]1C(=O)N[C@H]1CCC[C@@H]1C(=O)N[C@@H](CC(=O)O)CC(=O)N[C@H]1CCC[C@@H]1C(=O)N[C@H]1CCC[C@@H]1C(N)=O)NC(=O)[C@H]1CCC[C@@H]1NC(=O)[C@H]1CCC[C@@H]1N [H12 AD] — 0.25 log units lower, 3.36
- N=C(N)NCCC[C@@H](CC(=O)N[C@H]1CCC[C@@H]1C(=O)N[C@H]1CCC[C@@H]1C(=O)N[C@@H](CO)CC(=O)N[C@H]1CCC[C@@H]1C(=O)N[C@H]1CCC[C@@H]1C(N)=O)NC(=O)[C@H]1CCC[C@@H]1NC(=O)[C@H]1CCC[C@@H]1N [H12 RS] — within 0.2 log units, 3.62
- NCCCC[C@@H](CC(=O)N[C@H]1CCC[C@@H]1C(=O)N[C@H]1CCC[C@@H]1C(=O)N[C@@H](CCC(=O)O)CC(=O)N[C@H]1CCC[C@@H]1C(=O)N[C@H]1CCC[C@@H]1C(N)=O)NC(=O)[C@H]1CCC[C@@H]1NC(=O)[C@H]1CCC[C@@H]1N [H12 KE] — within 0.2 log units, 3.67
- NC(=O)C[C@@H](CC(=O)N[C@H]1CCC[C@@H]1C(=O)N[C@H]1CCC[C@@H]1C(N)=O)NC(=O)[C@H]1CCC[C@@H]1NC(=O)[C@H]1CCC[C@@H]1NC(=O)C[C@H](CC(=O)O)NC(=O)[C@H]1CCC[C@@H]1NC(=O)[C@H]1CCC[C@@H]1N [H12 DN] — within 0.2 log units, 3.65
- CC(C)[C@@H](CC(=O)N[C@H]1CCC[C@@H]1C(=O)N[C@H]1CCC[C@@H]1C(=O)N[C@@H](CCC(=O)O)CC(=O)N[C@H]1CCC[C@@H]1C(=O)N[C@H]1CCC[C@@H]1C(N)=O)NC(=O)[C@H]1CCC[C@@H]1NC(=O)[C@H]1CCC[C@@H]1N [H12 VE] — 0.28 log units lower, 3.33
- CC(C)[C@@H](CC(=O)N[C@H]1CCC[C@@H]1C(=O)N[C@H]1CCC[C@@H]1C(N)=O)NC(=O)[C@H]1CCC[C@@H]1NC(=O)[C@H]1CCC[C@@H]1NC(=O)C[C@H](CC(=O)O)NC(=O)[C@H]1CCC[C@@H]1NC(=O)[C@H]1CCC[C@@H]1N [H12 DV] — within 0.2 log units, 3.57
- C[C@@H](O)[C@@H](CC(=O)N[C@H]1CCC[C@@H]1C(=O)N[C@H]1CCC[C@@H]1C(N)=O)NC(=O)[C@H]1CCC[C@@H]1NC(=O)[C@H]1CCC[C@@H]1NC(=O)C[C@H](CC(=O)O)NC(=O)[C@H]1CCC[C@@H]1NC(=O)[C@H]1CCC[C@@H]1N [H12 DT] — 0.21 log units lower, 3.40
- CC[C@H](C)[C@@H](CC(=O)N[C@H]1CCC[C@@H]1C(=O)N[C@H]1CCC[C@@H]1C(=O)N[C@@H](CC(=O)O)CC(=O)N[C@H]1CCC[C@@H]1C(=O)N[C@H]1CCC[C@@H]1C(N)=O)NC(=O)[C@H]1CCC[C@@H]1NC(=O)[C@H]1CCC[C@@H]1N [H12 ID] — 0.27 log units lower, 3.34
- CC[C@H](C)[C@@H](CC(=O)N[C@H]1CCC[C@@H]1C(=O)N[C@H]1CCC[C@@H]1C(=O)N[C@@H](CC(N)=O)CC(=O)N[C@H]1CCC[C@@H]1C(=O)N[C@H]1CCC[C@@H]1C(N)=O)NC(=O)[C@H]1CCC[C@@H]1NC(=O)[C@H]1CCC[C@@H]1N [H12 IN] — 0.21 log units lower, 3.40
- CC(C)[C@@H](CC(=O)N[C@H]1CCC[C@@H]1C(=O)N[C@H]1CCC[C@@H]1C(N)=O)NC(=O)[C@H]1CCC[C@@H]1NC(=O)[C@H]1CCC[C@@H]1NC(=O)C[C@H](CCC(=O)O)NC(=O)[C@H]1CCC[C@@H]1NC(=O)[C@H]1CCC[C@@H]1N [H12 EV] — within 0.2 log units, 3.50
- CC(C)[C@@H](CC(=O)N[C@H]1CCC[C@@H]1C(=O)N[C@H]1CCC[C@@H]1C(=O)N[C@@H](CC(=O)O)CC(=O)N[C@H]1CCC[C@@H]1C(=O)N[C@H]1CCC[C@@H]1C(N)=O)NC(=O)[C@H]1CCC[C@@H]1NC(=O)[C@H]1CCC[C@@H]1N [H12 VD] — 0.29 log units lower, 3.32
- NC(=O)CC[C@@H](CC(=O)N[C@H]1CCC[C@@H]1C(=O)N[C@H]1CCC[C@@H]1C(N)=O)NC(=O)[C@H]1CCC[C@@H]1NC(=O)[C@H]1CCC[C@@H]1NC(=O)C[C@H](CCC(=O)O)NC(=O)[C@H]1CCC[C@@H]1NC(=O)[C@H]1CCC[C@@H]1N [H12 EQ] — within 0.2 log units, 3.63
- C[C@@H](CC(=O)N[C@H]1CCC[C@@H]1C(=O)N[C@H]1CCC[C@@H]1C(=O)N[C@@H](CC(N)=O)CC(=O)N[C@H]1CCC[C@@H]1C(=O)N[C@H]1CCC[C@@H]1C(N)=O)NC(=O)[C@H]1CCC[C@@H]1NC(=O)[C@H]1CCC[C@@H]1N [H12 AN] — within 0.2 log units, 3.48
- NC(=O)[C@H]1CCC[C@@H]1NC(=O)[C@H]1CCC[C@@H]1NC(=O)C[C@H](CCC(=O)O)NC(=O)[C@H]1CCC[C@@H]1NC(=O)[C@H]1CCC[C@@H]1NC(=O)C[C@H](CCC(=O)O)NC(=O)[C@H]1CCC[C@@H]1NC(=O)[C@H]1CCC[C@@H]1N [H12 EE] — within 0.2 log units, 3.46
- NC(=O)[C@H]1CCC[C@@H]1NC(=O)[C@H]1CCC[C@@H]1NC(=O)C[C@H](Cc1ccc(O)cc1)NC(=O)[C@H]1CCC[C@@H]1NC(=O)[C@H]1CCC[C@@H]1NC(=O)C[C@H](CCC(=O)O)NC(=O)[C@H]1CCC[C@@H]1NC(=O)[C@H]1CCC[C@@H]1N [H12 EY] — within 0.2 log units, 3.59
- NC(=O)[C@H]1CCC[C@@H]1NC(=O)[C@H]1CCC[C@@H]1NC(=O)C[C@H](Cc1ccccc1)NC(=O)[C@H]1CCC[C@@H]1NC(=O)[C@H]1CCC[C@@H]1NC(=O)C[C@H](CC(=O)O)NC(=O)[C@H]1CCC[C@@H]1NC(=O)[C@H]1CCC[C@@H]1N [H12 DF] — within 0.2 log units, 3.60
- NCCCC[C@@H](CC(=O)N[C@H]1CCC[C@@H]1C(=O)N[C@H]1CCC[C@@H]1C(N)=O)NC(=O)[C@H]1CCC[C@@H]1NC(=O)[C@H]1CCC[C@@H]1NC(=O)C[C@H](CC(N)=O)NC(=O)[C@H]1CCC[C@@H]1NC(=O)[C@H]1CCC[C@@H]1N [H12 NK] — 0.24 log units lower, 3.37
- NC(=O)[C@H]1CCC[C@@H]1NC(=O)[C@H]1CCC[C@@H]1NC(=O)C[C@H](CC(=O)O)NC(=O)[C@H]1CCC[C@@H]1NC(=O)[C@H]1CCC[C@@H]1NC(=O)C[C@H](CC(=O)O)NC(=O)[C@H]1CCC[C@@H]1NC(=O)[C@H]1CCC[C@@H]1N [H12 DD] — within 0.2 log units, 3.43
- CC(C)C[C@@H](CC(=O)N[C@H]1CCC[C@@H]1C(=O)N[C@H]1CCC[C@@H]1C(=O)N[C@@H](CC(=O)O)CC(=O)N[C@H]1CCC[C@@H]1C(=O)N[C@H]1CCC[C@@H]1C(N)=O)NC(=O)[C@H]1CCC[C@@H]1NC(=O)[C@H]1CCC[C@@H]1N [H12 LD] — 0.28 log units lower, 3.33
- NC(=O)[C@H]1CCC[C@@H]1NC(=O)[C@H]1CCC[C@@H]1NC(=O)C[C@H](Cc1ccccc1)NC(=O)[C@H]1CCC[C@@H]1NC(=O)[C@H]1CCC[C@@H]1NC(=O)C[C@H](CCC(=O)O)NC(=O)[C@H]1CCC[C@@H]1NC(=O)[C@H]1CCC[C@@H]1N [H12 EF] — the same, 3.61

Same assay, conditions: H14 library; 1:1 binding assumed; read-out: Surface mapping KD (apparent)

Compound `C[C@@H](CC(=O)N[C@H]1CCCC[C@@H]1C(=O)N[C@H]1CCCC[C@@H]1C(=O)N[C@@H](CC(=O)O)CC(=O)N[C@H]1CCCC[C@@H]1C(N)=O)NC(=O)[C@H]1CCCC[C@@H]1N` [H14 AD] has a pKd of 3.77.

Same assay, conditions: read-out: KD estimated by pull-down experiments

`NC(=O)[C@H]1CCCC[C@@H]1NC(=O)C[C@H](Cc1ccccc1)NC(=O)[C@H]1CCCC[C@@H]1NC(=O)[C@H]1CCCC[C@@H]1NC(=O)C[C@H](Cc1c[nH]c2ccccc12)NC(=O)[C@H]1CCCC[C@@H]1N` [12b] showed a pKd of 4.40 to 4.52.
